# In patent US12509457B2, “Bicyclic nitrogen containing heterocycles as inhibitors of salt-induced kinase SIK2” (priority 2019, dated 2025):
# Where two headings read alike, the source gives them in different places.
# Legend:
# Format in all cases: biochemical
# SIK1 = SIK1 (Homo sapiens, UniProt P57059); assay: SIK1 kinase assay, IMAP fluorescence polarization; conditions: 50 or 100 μM ATP; average; read-out: SIK1-AVERAGE Ki
# EPHA2 = EPHA2 (Homo sapiens, UniProt P29317); assay: EPHA2 kinase assay, IMAP fluorescence polarization
# Sequence of EPHA2 (P29317 24-976): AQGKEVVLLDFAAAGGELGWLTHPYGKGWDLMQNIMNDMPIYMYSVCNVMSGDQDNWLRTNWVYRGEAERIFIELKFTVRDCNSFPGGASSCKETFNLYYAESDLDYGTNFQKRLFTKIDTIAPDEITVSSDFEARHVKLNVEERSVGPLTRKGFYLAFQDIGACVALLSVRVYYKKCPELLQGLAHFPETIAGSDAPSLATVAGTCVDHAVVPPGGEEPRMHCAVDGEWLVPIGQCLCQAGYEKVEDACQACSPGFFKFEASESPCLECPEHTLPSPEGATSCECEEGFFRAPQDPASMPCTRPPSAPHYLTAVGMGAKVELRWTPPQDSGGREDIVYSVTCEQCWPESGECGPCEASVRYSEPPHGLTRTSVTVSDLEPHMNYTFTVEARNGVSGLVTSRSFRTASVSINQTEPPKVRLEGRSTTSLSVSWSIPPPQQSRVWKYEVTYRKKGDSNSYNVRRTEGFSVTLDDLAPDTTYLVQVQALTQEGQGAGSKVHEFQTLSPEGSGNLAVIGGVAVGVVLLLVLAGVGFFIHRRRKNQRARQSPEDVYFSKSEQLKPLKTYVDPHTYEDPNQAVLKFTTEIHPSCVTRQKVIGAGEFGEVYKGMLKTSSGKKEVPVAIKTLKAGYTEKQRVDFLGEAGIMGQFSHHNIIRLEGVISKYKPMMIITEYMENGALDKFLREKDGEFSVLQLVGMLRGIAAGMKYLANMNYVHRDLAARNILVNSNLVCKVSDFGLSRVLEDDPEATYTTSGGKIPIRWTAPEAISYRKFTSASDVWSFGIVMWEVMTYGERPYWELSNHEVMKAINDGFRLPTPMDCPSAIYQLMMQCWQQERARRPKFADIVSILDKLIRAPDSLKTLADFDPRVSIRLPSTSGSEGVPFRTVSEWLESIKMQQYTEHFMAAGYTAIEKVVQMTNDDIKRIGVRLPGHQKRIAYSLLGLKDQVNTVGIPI
# Abl = Abl (Homo sapiens, UniProt P00519); assay: Abl kinase assay, IMAP fluorescence polarization; conditions: 50 or 100 μM ATP; average; read-out: Abl-AVERAGE Ki
# Sequence of Abl (P00519 whole entry): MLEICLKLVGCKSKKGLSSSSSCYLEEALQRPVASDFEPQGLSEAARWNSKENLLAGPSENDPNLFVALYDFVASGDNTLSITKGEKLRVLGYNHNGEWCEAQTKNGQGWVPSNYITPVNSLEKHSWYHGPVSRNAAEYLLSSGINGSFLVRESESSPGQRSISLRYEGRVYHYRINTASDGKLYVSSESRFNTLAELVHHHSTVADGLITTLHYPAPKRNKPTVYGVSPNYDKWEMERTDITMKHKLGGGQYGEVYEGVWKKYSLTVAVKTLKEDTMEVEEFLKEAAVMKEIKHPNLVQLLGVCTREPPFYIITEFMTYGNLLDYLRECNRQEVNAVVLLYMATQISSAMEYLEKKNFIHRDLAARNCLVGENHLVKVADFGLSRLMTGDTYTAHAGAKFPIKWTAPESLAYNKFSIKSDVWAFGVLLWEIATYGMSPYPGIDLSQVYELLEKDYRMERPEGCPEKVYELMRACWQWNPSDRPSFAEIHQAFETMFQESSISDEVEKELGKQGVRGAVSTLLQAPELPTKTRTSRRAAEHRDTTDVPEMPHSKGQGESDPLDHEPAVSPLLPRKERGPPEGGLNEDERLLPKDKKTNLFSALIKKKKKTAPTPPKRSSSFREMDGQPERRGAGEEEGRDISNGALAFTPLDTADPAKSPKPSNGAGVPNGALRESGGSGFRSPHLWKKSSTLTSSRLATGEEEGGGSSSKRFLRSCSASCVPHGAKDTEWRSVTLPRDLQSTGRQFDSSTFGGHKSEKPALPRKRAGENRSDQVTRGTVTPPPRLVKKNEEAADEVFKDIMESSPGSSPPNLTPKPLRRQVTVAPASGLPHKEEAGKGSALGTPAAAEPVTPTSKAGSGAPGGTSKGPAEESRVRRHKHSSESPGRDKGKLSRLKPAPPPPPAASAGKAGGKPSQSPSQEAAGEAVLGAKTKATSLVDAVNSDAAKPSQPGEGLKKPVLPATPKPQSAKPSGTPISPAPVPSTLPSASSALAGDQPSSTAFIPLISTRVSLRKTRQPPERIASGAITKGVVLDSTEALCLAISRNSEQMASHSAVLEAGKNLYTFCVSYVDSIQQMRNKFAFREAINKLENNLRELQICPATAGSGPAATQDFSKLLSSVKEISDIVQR
# SIK2 = SIK2 (Homo sapiens, UniProt Q9H0K1); assay: SIK2 kinase assay, IMAP fluorescence polarization; conditions: 50 or 100 μM ATP; average; read-out: SIK2-AVERAGE Ki
# Sequence of SIK2 (Q9H0K1 whole entry): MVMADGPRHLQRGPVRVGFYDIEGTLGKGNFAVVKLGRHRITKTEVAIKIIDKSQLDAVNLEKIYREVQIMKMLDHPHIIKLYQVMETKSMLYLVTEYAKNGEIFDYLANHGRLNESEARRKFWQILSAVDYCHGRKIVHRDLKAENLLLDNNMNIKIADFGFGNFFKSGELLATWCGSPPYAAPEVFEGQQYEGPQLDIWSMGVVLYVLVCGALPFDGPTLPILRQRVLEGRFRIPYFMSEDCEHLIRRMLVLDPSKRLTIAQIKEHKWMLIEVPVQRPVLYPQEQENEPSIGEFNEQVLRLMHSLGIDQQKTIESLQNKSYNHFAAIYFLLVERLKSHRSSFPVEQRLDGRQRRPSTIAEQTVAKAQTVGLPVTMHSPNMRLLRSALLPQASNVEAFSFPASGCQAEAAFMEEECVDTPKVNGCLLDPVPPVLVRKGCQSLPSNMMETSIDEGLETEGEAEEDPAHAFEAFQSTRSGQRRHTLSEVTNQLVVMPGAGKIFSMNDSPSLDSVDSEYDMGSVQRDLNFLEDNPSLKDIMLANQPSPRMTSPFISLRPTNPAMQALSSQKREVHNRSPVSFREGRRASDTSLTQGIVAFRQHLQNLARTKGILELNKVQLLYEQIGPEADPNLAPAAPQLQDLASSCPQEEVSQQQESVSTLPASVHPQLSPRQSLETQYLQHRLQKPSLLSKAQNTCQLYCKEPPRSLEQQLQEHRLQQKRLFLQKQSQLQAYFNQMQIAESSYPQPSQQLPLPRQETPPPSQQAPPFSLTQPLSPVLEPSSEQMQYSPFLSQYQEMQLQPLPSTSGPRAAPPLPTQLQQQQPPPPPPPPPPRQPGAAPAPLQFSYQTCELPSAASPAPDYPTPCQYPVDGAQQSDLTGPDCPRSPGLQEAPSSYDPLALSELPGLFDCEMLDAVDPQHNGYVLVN
# Src = Src (Homo sapiens, UniProt P12931); assay: Src kinase assay, IMAP fluorescence polarization; conditions: 50 or 100 μM ATP; average; read-out: Src-AVERAGE Ki
# Sequence of Src (P12931 whole entry): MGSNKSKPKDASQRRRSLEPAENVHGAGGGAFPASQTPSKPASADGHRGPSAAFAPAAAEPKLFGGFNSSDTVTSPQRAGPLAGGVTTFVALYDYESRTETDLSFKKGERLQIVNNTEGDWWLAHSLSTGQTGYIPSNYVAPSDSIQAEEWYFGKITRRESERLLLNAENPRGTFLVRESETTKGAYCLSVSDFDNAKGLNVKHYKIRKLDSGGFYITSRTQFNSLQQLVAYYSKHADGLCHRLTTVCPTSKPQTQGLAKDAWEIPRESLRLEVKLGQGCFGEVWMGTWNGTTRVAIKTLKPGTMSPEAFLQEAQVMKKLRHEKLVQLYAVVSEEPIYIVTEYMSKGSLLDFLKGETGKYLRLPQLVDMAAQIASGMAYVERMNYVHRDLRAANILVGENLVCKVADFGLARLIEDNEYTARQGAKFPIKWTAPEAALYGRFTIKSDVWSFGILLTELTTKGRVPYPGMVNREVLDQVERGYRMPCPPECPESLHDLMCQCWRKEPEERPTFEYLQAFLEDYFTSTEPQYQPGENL
# SIK3 = SIK3 (Homo sapiens, UniProt Q9Y2K2); assay: SIK3 kinase assay, IMAP fluorescence polarization; conditions: 50 or 100 μM ATP; average; read-out: SIK3-AVERAGE Ki
# Sequence of SIK3 (Q9Y2K2 whole entry): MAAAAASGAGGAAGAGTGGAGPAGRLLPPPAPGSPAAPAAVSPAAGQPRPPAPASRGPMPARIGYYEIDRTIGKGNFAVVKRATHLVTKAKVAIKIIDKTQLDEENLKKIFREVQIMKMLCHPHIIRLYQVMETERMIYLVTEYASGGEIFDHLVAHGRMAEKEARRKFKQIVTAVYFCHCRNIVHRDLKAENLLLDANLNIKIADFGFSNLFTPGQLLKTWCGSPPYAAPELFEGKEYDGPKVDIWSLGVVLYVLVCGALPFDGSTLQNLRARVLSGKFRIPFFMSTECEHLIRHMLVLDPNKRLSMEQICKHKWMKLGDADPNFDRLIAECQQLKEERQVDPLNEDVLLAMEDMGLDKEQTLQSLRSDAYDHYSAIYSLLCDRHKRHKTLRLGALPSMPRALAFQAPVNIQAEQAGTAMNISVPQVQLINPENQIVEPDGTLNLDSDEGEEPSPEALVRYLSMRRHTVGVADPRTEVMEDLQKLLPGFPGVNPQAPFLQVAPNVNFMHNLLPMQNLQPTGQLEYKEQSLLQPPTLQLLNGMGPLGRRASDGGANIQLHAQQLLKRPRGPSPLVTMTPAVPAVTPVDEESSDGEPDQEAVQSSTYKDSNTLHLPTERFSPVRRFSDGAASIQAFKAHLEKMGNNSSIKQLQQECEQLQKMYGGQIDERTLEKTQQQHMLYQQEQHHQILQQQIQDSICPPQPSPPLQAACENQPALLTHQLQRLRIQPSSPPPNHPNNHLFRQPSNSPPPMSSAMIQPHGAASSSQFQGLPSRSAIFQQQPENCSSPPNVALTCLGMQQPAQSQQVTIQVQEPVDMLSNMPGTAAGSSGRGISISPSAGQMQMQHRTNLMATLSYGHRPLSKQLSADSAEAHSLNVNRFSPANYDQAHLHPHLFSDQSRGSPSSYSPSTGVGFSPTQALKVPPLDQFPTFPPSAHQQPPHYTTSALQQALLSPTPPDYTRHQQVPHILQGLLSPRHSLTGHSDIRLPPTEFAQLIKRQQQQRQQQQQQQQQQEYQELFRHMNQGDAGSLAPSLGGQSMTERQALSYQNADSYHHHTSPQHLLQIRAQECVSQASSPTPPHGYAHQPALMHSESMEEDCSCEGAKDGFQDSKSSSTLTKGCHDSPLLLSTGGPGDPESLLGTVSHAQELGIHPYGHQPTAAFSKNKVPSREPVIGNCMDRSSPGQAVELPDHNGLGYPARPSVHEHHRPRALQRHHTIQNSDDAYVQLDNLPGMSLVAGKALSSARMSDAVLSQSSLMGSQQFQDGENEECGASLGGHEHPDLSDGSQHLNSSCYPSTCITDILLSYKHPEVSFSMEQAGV
Structure (SMILES),Ki (SIK1) [nM],"Ki (EPHA2; 50 or 100 μM ATP, average) [nM]",Ki (Abl) [nM],Ki (SIK2) [nM],Ki (Src) [nM],Ki (SIK3) [nM],Ki (EPHA2) [nM]
"Cc1cccc(F)c1N1Cc2cnc(N)cc2N([C@H]2CCC[C@@H](N(C)C)C2)C1=O (relative stereo) [Example 43, 7-amino-1-[cis-3-(dimethylamino)cyclohexyl]-3-(2-fluoro-6-methyl-phenyl)-4H-pyrido[4,3-d]pyrimidin-2-one]",1.96,39.3,25.3,1.57,71.3,13.4,–
"Cc1cccc(F)c1N1Cc2cnc(N(C)C)cc2N([C@H]2CCC[C@@H](N(C)C)C2)C1=O (relative stereo) [Example 44, 7-(dimethylamino)-1-[cis-3-(dimethylamino)cyclohexyl]-3-(2-fluoro-6-methyl-phenyl)-4H-pyrido[4,3-d]pyrimidin-2-one]",263,6410,–,123,> 10000,1370,–
"Cc1cccc(F)c1N1Cc2cnc(N)cc2N([C@H]2CCC[C@H](N)C2)C1=O (relative stereo) [Example 55, 7-amino-1-[(trans)-3-aminocyclohexyl]-3-(2-fluoro-6-methyl-phenyl)-4H-pyrido[4,3-d]pyrimidin-2-one]",1.25,7.16,14.3,0.364,33,4.71,–
"Cc1cccc(F)c1N1Cc2cnc(N)cc2N([C@H]2CCC[C@@H](N)C2)C1=O (relative stereo) [Example 56, 7-amino-1-[(cis)-3-aminocyclohexyl]-3-(2-fluoro-6-methyl-phenyl)-4H-pyrido[4,3-d]pyrimidin-2-one]",0.604,42.3,3.28,0.19,18.9,1.46,–
"Cc1cccc(F)c1N1Cc2cnc(N)cc2N(CC2CCNCC2)C1=O [Example 2, 7-amino-3-(2-fluoro-6-methyl-phenyl)-1-(4-piperidylmethyl)-4H-pyrido[4,3-d]pyrimidin-2-one]",0.94,38.7,2.34,0.163,23.1,0.55,–
"Cc1cccc(F)c1N1Cc2cnc(N)cc2N(C2CNC2)C1=O [Example 4, 7-amino-1-(azetidin-3-yl)-3-(2-fluoro-6-methyl-phenyl)-4H-pyrido[4,3-d]pyrimidin-2-one]",7.92,–,187,4.08,547,35.3,221
"Cc1cccc(F)c1N1Cc2cnc(N)cc2N(C2CN(C)C2)C1=O [Example 5, 7-amino-3-(2-fluoro-6-methyl-phenyl)-1-(1-methylazetidin-3-yl)-4H-pyrido[4,3-d]pyrimidin-2-one]",56,> 1000,> 1000,13.6,> 1000,124,–
"Cc1cccc(Cl)c1N1Cc2cnc(N)cc2N(C2CNC2)C1=O [Example 8, 7-amino-1-(azetidin-3-yl)-3-(2-chloro-6-methyl-phenyl)-4H-pyrido[4,3-d]pyrimidin-2-one]",7.76,–,> 1000,4.49,158,45.6,149
"Cc1cccc(Cl)c1N1Cc2cnc(N)cc2N(C2CN(C)C2)C1=O [Example 9, 7-amino-3-(2-chloro-6-methyl-phenyl)-1-(1-methylazetidin-3-yl)-4H-pyrido[4,3-d]pyrimidin-2-one]",29.2,–,> 1000,17.9,> 1000,145,175
"CNc1cc2c(cn1)CN(c1c(C)cccc1F)C(=O)N2C1CN(C)C1 [Example 10, 3-(2-Fluoro-6-methyl-phenyl)-7-(methylamino)-1-(1-methylazetidin-3-yl)-4H-pyrido[4,3-d]pyrimidin-2-one]",66.9,> 1000,> 1000,14.8,> 1000,177,–
"Cc1cccc(F)c1N1Cc2cnc(N)nc2N(CC2CCNCC2)C1=O [Example 12, 7-amino-3-(2-fluoro-6-methyl-phenyl)-1-(4-piperidylmethyl)-4H-pyrimido[4,5-d]pyrimidin-2-one]",0.822,27.9,3.12,0.149,39.3,0.721,–
"Cc1cccc(F)c1N1Cc2cnc(N)nc2N(C2CNC2)C1=O [Example 13, 7-Amino-1-(azetidin-3-yl)-3-(2-fluoro-6-methyl-phenyl)-4H-pyrimido[4,5-d]pyrimidin-2-one]",9.71,371,36.4,1.77,400,10.9,–
"Cc1cccc(Cl)c1N1Cc2cnc(N)nc2N(C2CNC2)C1=O [Example 14, 7-amino-1-(azetidin-3-yl)-3-(2-chloro-6-methyl-phenyl)-4H-pyrimido[4,5-d]pyrimidin-2-one]",5.8,180,42.5,1.67,96.1,9.47,–
"Cc1cccc(F)c1N1Cc2cnc(N)nc2N(C2CN(C)C2)C1=O [Example 21, 7-amino-3-(2-fluoro-6-methyl-phenyl)-1-(1-methylazetidin-3-yl)-4H-pyrimido[4,5-d]pyrimidin-2-one]",47.4,388,> 10000,13.7,2560,47.9,–
"Cc1cccc(Cl)c1N1Cc2cnc(N)nc2N(C2CN(C)C2)C1=O [Example 23, 7-amino-3-(2-chloro-6-methyl-phenyl)-1-(1-methylazetidin-3-yl)-4H-pyrimido[4,5-d]pyrimidin-2-one]",28.6,162,> 10000,14.2,550,54.7,–
"Cc1cccc(F)c1N1Cc2cnc(N)nc2N([C@H]2CCN(C)C2)C1=O [Example 30, 7-amino-3-(2-fluoro-6-methyl-phenyl)-1-[(3S)-1-methylpyrrolidin-3-yl]-4H-pyrimido[4,5-d]pyrimidin-2-one]",12,–,444,3.8,1880,64.5,78.5
"Cc1cccc(F)c1N1Cc2cnc(N)nc2N([C@@H]2CCN(C)C2)C1=O [Example 31, 7-amino-3-(2-fluoro-6-methyl-phenyl)-1-[(3R)-1-methylpyrrolidin-3-yl]-4H-pyrimido[4,5-d]pyrimidin-2-one]",8.28,–,522,4.79,> 10000,62.6,228
"Cc1cccc(F)c1N1Cc2cnc(N)nc2N([C@@H]2CCCN(C)CC2)C1=O [Example 34, 7-amino-3-(2-fluoro-6-methyl-phenyl)-1[(4R)-1-methylazepan-4-yl]-4H-pyrimido[4,5-d]pyrimidin-2-one]",0.733,–,33.6,0.374,138,1.48,29.6
"Cc1cccc(F)c1N1Cc2cnc(N)nc2N([C@H]2CCCN(C)CC2)C1=O [Example 35, 7-amino-3-(2-fluoro-6-methyl-phenyl)-1-[(4S)-1-methylazepan-4-yl]-4H-pyrimido[4,5-d]pyrimidin-2-one]",1.17,–,105,0.383,287,2.12,38.7
"Cc1cccc(F)c1N1Cc2cnc(N)nc2N([C@H]2CCCCN(C)C2)C1=O [Example 36, 7-amino-3-(2-fluoro-6-methyl-phenyl)-1-[(3S)-1-methylazepan-3-yl]-4H-pyrimido[4,5-d]pyrimidin-2-one]",1.85,124,62.1,0.68,138,8.61,–
"Cc1cccc(F)c1N1Cc2cnc(N)nc2N([C@H]2CCCN(C)C2)C1=O [Example 37, 7-amino-3-(2-fluoro-6-methyl-phenyl)-1-[(3S)-1-methyl-3-piperidyl]-4H-pyrimido[4,5-d]pyrimidin-2-one]",2.5,25.8,53.2,0.703,80.5,6.65,–
"Cc1cccc(F)c1N1Cc2cnc(N)nc2N([C@@H]2CCCCN(C)C2)C1=O [Example 38, 7-amino-3-(2-fluoro-6-methyl-phenyl)-1-[(3R)-1-methylazepan-3-yl]-4H-pyrimido[4,5-d]pyrimidin-2-one]",9.57,188,144,2.7,678,46.7,–
"Cc1cccc(F)c1N1Cc2cnc(N)nc2N([C@H]2CC[C@@H](N(C)C)CC2)C1=O [Example 39, cis-7-amino-1-[4-(dimethylamino)cyclohexyl]-3-(2-fluoro-6-methyl-phenyl)-4H-pyrimido[4,5-d]pyrimidin-2-one]",1.66,35.8,32.5,0.444,86,3.87,–
"CNc1cc2c(cn1)CN(c1c(C)cccc1F)C(=O)N2[C@H]1CC[C@@H](N(C)C)CC1 [Example 40, cis-1-[4-(dimethylamino)cyclohexyl]-3-(2-fluoro-6-methyl-phenyl)-7-(methylamino)-4H-pyrido[4,3-d]pyrimidin-2-one]",3.93,106,62.7,1.25,626,18.4,–
